Laboratory results as given in US20240058464A1 (Fortis Therapeutics, Inc., priority 2021, published 2024).

Assays:
CD46 expression [1] = test: CD46 expression by RNA-sequencing in unpaired pre-treatment and post-treatment tumor biopsies; type: in vivo, human; conditions: for CD46 expression diff: Post minus Pre, unpaired biopsies, log2-transformed counts; for CD46 expression Percentage change: post- vs pre-treatment unpaired biopsies; for CD46 expression Post: post-treatment biopsies, unpaired, RNA-seq log2-transformed normalized counts
CD46 expression [2] = test: CD46 expression by RNA-sequencing in paired tumor biopsies before and after therapy; conditions: paired biopsies; for CD46 expression, Pre-Treatment Biopsy / CD46 expression, Post-Treatment Biopsy: RNA-seq log2-transformed counts;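 on all read-outs here: FFPE human tumor biopsies, exome-capture RNA-seq, reads aligned to GRCh37, counts normalized for GC content, length and depth, summed per gene, log2-transformed, samples paired before versus after therapy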
Procedure: Gene expression was determined by RNA-sequencing from formalin-fixed, paraffin-embedded (FFPE) tumor samples using an exome capture-based protocol. Briefly, total nucleic acid was extracted from FFPE solid tumor samples. The RNA sample was treated with DNAse and reverse transcribed. cDNA was captured with a custom probe set targeting the human exome. A library was prepared from the captured cDNA and sequenced on the Illumina platform. Sequence read were aligned to GRCh37 using Kallisto and normalized to quantify gene expression. Specifically, transcript counts were corrected for GC content and length using quantile normalization and adjusted for sequencing depth via a size factor method. Normalized counts in protein coding transcripts covered by the exome panel were then summed to obtain gene-level counts. Subsequent expression analyses were performed on log2-transformed counts.

[3] = Head and Neck Squamous Cell Carcinoma
[4] = Clear Cell Renal Cell Carcinoma

pembrolizumab
CD46 expression diff (CD46 expression [1]; Bladder Cancer): 0.06
CD46 expression Percentage change (CD46 expression [1]; Bladder Cancer): 0.9%
CD46 expression Post (CD46 expression [1]; Bladder Cancer): 6.18
CD46 expression diff (CD46 expression [1]; Breast Cancer): −0.13
CD46 expression Percentage change (CD46 expression [1]; Breast Cancer): −2.2%
CD46 expression Post (CD46 expression [1]; Breast Cancer): 5.95
CD46 expression diff (CD46 expression [1]; Colorectal Cancer): 0.30
CD46 expression Percentage change (CD46 expression [1]; Colorectal Cancer): 4.8%
CD46 expression Post (CD46 expression [1]; Colorectal Cancer): 6.50
CD46 expression diff (CD46 expression [1]; Esophageal Cancer): 0.09
CD46 expression Percentage change (CD46 expression [1]; Esophageal Cancer): 1.4%
CD46 expression Post (CD46 expression [1]; Esophageal Cancer): 6.01
CD46 expression diff (CD46 expression [1]; [3]): 0.17
CD46 expression Percentage change (CD46 expression [1]; [3]): 3.1%
CD46 expression Post (CD46 expression [1]; [3]): 5.76
CD46 expression diff (CD46 expression [1]; Melanoma): 0.00
CD46 expression Percentage change (CD46 expression [1]; Melanoma): 0.0%
CD46 expression Post (CD46 expression [1]; Melanoma): 5.30
CD46 expression diff (CD46 expression [1]; Non-Small Cell Lung Cancer): −0.05
CD46 expression Percentage change (CD46 expression [1]; Non-Small Cell Lung Cancer): −0.7%
CD46 expression diff (post minus pre) (CD46 expression [2]; Breast Cancer): −0.11
Percent Change in CD46 expression (CD46 expression [2]; Breast Cancer): −1.7%
CD46 expression, Pre-Treatment Biopsy (CD46 expression [2]; Breast Cancer): 6.28
CD46 expression diff (post minus pre) (CD46 expression [2]; Melanoma): 0.03
Percent Change in CD46 expression (CD46 expression [2]; Melanoma): 0.6%
CD46 expression, Post-Treatment Biopsy (CD46 expression [2]; Melanoma): 5.25
CD46 expression, Pre-Treatment Biopsy (CD46 expression [2]; Melanoma): 5.22
CD46 expression diff (post minus pre) (CD46 expression [2]; Non-Small Cell Lung Cancer): −0.24
Percent Change in CD46 expression (CD46 expression [2]; Non-Small Cell Lung Cancer): −3.8%
CD46 expression, Post-Treatment Biopsy (CD46 expression [2]; Non-Small Cell Lung Cancer): 6.00
CD46 expression, Pre-Treatment Biopsy (CD46 expression [2]; Non-Small Cell Lung Cancer): 6.23

ipilimumab
CD46 expression diff (CD46 expression [1]; [4]): −0.08
CD46 expression Percentage change (CD46 expression [1]; [4]): −1.4%
CD46 expression Post (CD46 expression [1]; [4]): 5.48
CD46 expression diff (CD46 expression [1]; Melanoma): −0.06
CD46 expression Percentage change (CD46 expression [1]; Melanoma): −1.1%
CD46 expression Post (CD46 expression [1]; Melanoma): 5.30
CD46 expression diff (post minus pre) (CD46 expression [2]; Melanoma): −0.06
Percent Change in CD46 expression (CD46 expression [2]; Melanoma): −1.1%
CD46 expression, Post-Treatment Biopsy (CD46 expression [2]; Melanoma): 5.26
CD46 expression, Pre-Treatment Biopsy (CD46 expression [2]; Melanoma): 5.31

nivolumab
CD46 expression diff (CD46 expression [1]; [4]): −0.06
CD46 expression Percentage change (CD46 expression [1]; [4]): −1.1%
CD46 expression Post (CD46 expression [1]; [4]): 5.50
CD46 expression diff (CD46 expression [1]; Melanoma): −0.02
CD46 expression Percentage change (CD46 expression [1]; Melanoma): −0.5%
CD46 expression Post (CD46 expression [1]; Melanoma): 5.31
CD46 expression diff (CD46 expression [1]; Non-Small Cell Lung Cancer): −0.09
CD46 expression Percentage change (CD46 expression [1]; Non-Small Cell Lung Cancer): −1.5%
CD46 expression Post (CD46 expression [1]; Non-Small Cell Lung Cancer): 6.11
CD46 expression diff (post minus pre) (CD46 expression [2]; Melanoma): −0.04
Percent Change in CD46 expression (CD46 expression [2]; Melanoma): −0.7%
CD46 expression, Post-Treatment Biopsy (CD46 expression [2]; Melanoma): 5.26
CD46 expression, Pre-Treatment Biopsy (CD46 expression [2]; Melanoma): 5.29

C[C@]12CC[C@H](O)CC1=CC[C@@H]1[C@@H]2CC[C@]2(C)C(c3cccnc3)=CC[C@@H]12 [abiraterone]
CD46 expression diff (CD46 expression [1]; Prostate Cancer): −0.07
CD46 expression Percentage change (CD46 expression [1]; Prostate Cancer): −1.1%
CD46 expression Post (CD46 expression [1]; Prostate Cancer): 6.10
CD46 expression diff (post minus pre) (CD46 expression [2]; Prostate Cancer): 0.29
Percent Change in CD46 expression (CD46 expression [2]; Prostate Cancer): 5.1%

CO[C@H]1C(=O)[C@]2(C)[C@@H](OC)C[C@H]3OC[C@@]3(OC(C)=O)[C@H]2[C@H](OC(=O)c2ccccc2)[C@]2(O)C[C@H](OC(=O)[C@H](O)[C@@H](NC(=O)OC(C)(C)C)c3ccccc3)C(C)=C1C2(C)C [cabazitaxel]
CD46 expression diff (CD46 expression [1]; Prostate Cancer): 0.09
CD46 expression Percentage change (CD46 expression [1]; Prostate Cancer): 1.6%
CD46 expression diff (post minus pre) (CD46 expression [2]; Prostate Cancer): 0.07
Percent Change in CD46 expression (CD46 expression [2]; Prostate Cancer): 1.2%
CD46 expression, Post-Treatment Biopsy (CD46 expression [2]; Prostate Cancer): 5.93

C[C@]12C=CC(=O)C=C1CC[C@@H]1[C@@H]2C(=O)C[C@@]2(C)[C@H]1CC[C@]2(O)C(=O)CO [prednisone]
CD46 expression diff (CD46 expression [1]; Non-Small Cell Lung Cancer): 0.02
CD46 expression Percentage change (CD46 expression [1]; Non-Small Cell Lung Cancer): 0.3%
CD46 expression diff (CD46 expression [1]; Prostate Cancer): −0.10
CD46 expression Percentage change (CD46 expression [1]; Prostate Cancer): −1.7%
CD46 expression Post (CD46 expression [1]; Prostate Cancer): 6.08
CD46 expression diff (post minus pre) (CD46 expression [2]; Prostate Cancer): 0.13
Percent Change in CD46 expression (CD46 expression [2]; Prostate Cancer): 2.3%
CD46 expression, Post-Treatment Biopsy (CD46 expression [2]; Prostate Cancer): 5.85

Nc1nc2[nH]cc(CCc3ccc(C(=O)N[C@@H](CCC(=O)O)C(=O)O)cc3)c2c(=O)[nH]1 [pemetrexed]
CD46 expression diff (CD46 expression [1]; Non-Small Cell Lung Cancer): −0.11
CD46 expression Percentage change (CD46 expression [1]; Non-Small Cell Lung Cancer): −1.8%
CD46 expression Post (CD46 expression [1]; Non-Small Cell Lung Cancer): 6.27
CD46 expression diff (post minus pre) (CD46 expression [2]; Non-Small Cell Lung Cancer): −0.20
Percent Change in CD46 expression (CD46 expression [2]; Non-Small Cell Lung Cancer): −3.1%
CD46 expression, Post-Treatment Biopsy (CD46 expression [2]; Non-Small Cell Lung Cancer): 6.22

Nc1ccn([C@@H]2O[C@H](CO)[C@@H](O)C2(F)F)c(=O)n1 [gemcitabine]
CD46 expression diff (CD46 expression [1]; Biliary Cancer): −0.03
CD46 expression Percentage change (CD46 expression [1]; Biliary Cancer): −0.5%
CD46 expression Post (CD46 expression [1]; Biliary Cancer): 5.80
CD46 expression diff (CD46 expression [1]; Bladder Cancer): −0.03
CD46 expression Percentage change (CD46 expression [1]; Bladder Cancer): −0.5%
CD46 expression Post (CD46 expression [1]; Bladder Cancer): 6.12
CD46 expression diff (CD46 expression [1]; Breast Cancer): 0.02
CD46 expression Percentage change (CD46 expression [1]; Breast Cancer): 0.3%
CD46 expression Post (CD46 expression [1]; Breast Cancer): 6.09
CD46 expression diff (CD46 expression [1]; Non-Small Cell Lung Cancer): 0.10
CD46 expression Percentage change (CD46 expression [1]; Non-Small Cell Lung Cancer): 1.7%
CD46 expression Post (CD46 expression [1]; Non-Small Cell Lung Cancer): 5.98
CD46 expression diff (CD46 expression [1]; Ovarian Cancer): −0.05
CD46 expression Percentage change (CD46 expression [1]; Ovarian Cancer): −0.9%
CD46 expression Post (CD46 expression [1]; Ovarian Cancer): 5.72
CD46 expression diff (CD46 expression [1]; Pancreatic Cancer): 0.00
CD46 expression Percentage change (CD46 expression [1]; Pancreatic Cancer): 0.1%
CD46 expression Post (CD46 expression [1]; Pancreatic Cancer): 5.87
CD46 expression diff (CD46 expression [1]; Sarcoma): −0.10
CD46 expression Percentage change (CD46 expression [1]; Sarcoma): −2.0%
CD46 expression Post (CD46 expression [1]; Sarcoma): 5.02
CD46 expression diff (post minus pre) (CD46 expression [2]; Biliary Cancer): 0.05
Percent Change in CD46 expression (CD46 expression [2]; Biliary Cancer): 0.9%
CD46 expression, Post-Treatment Biopsy (CD46 expression [2]; Biliary Cancer): 5.86
CD46 expression diff (post minus pre) (CD46 expression [2]; Bladder Cancer): −0.05
Percent Change in CD46 expression (CD46 expression [2]; Bladder Cancer): −0.8%
CD46 expression, Post-Treatment Biopsy (CD46 expression [2]; Bladder Cancer): 6.24
CD46 expression diff (post minus pre) (CD46 expression [2]; Breast Cancer): 0.09
Percent Change in CD46 expression (CD46 expression [2]; Breast Cancer): 1.4%
CD46 expression, Post-Treatment Biopsy (CD46 expression [2]; Breast Cancer): 6.22
CD46 expression diff (post minus pre) (CD46 expression [2]; Ovarian Cancer): 0.30
Percent Change in CD46 expression (CD46 expression [2]; Ovarian Cancer): 5.3%
CD46 expression, Post-Treatment Biopsy (CD46 expression [2]; Ovarian Cancer): 5.95
CD46 expression diff (post minus pre) (CD46 expression [2]; Pancreatic Cancer): 0.09
Percent Change in CD46 expression (CD46 expression [2]; Pancreatic Cancer): 1.5%
CD46 expression, Post-Treatment Biopsy (CD46 expression [2]; Pancreatic Cancer): 5.93
CD46 expression diff (post minus pre) (CD46 expression [2]; Sarcoma): 0.02
Percent Change in CD46 expression (CD46 expression [2]; Sarcoma): 0.4%
CD46 expression, Post-Treatment Biopsy (CD46 expression [2]; Sarcoma): 5.13
